Results: patent publication US20260116910A1, “POLYCYCLIC COMPOUNDS AND METHODS THEREOF” (HEPAITECH (BEIJING) BIOPHARMA TECHNOLOGY CO., LTD., priority 2021, published 2026)

Experiments:
[1] = target: MRGPRX4 (Homo sapiens, UniProt Q96LA9); test: MRGPRX4 activation, Fluo-8 Ca2+ FLIPR assay in HEK293T cells stably expressing MRGPRX4; format: cell-based; parameters: key to MRGPRX4 activation, Average / MRGPRX4 activation, Ave.: fluorescence change dF/F0; details: for EC50: MRGPRX4 activation, Ca2+ fluorescence, no activation in tested range reported as III, read-out: Activity (EC50 μM)
Sequence of MRGPRX4 (Q96LA9 whole entry): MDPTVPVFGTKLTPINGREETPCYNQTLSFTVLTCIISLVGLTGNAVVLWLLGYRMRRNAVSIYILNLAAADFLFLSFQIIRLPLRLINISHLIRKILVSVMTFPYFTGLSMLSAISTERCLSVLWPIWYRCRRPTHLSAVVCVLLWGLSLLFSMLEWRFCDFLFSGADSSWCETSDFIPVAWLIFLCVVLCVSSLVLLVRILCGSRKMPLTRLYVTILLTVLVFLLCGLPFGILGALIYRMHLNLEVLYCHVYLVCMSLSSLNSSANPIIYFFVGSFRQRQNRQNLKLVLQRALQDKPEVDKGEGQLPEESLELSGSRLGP
In short: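 Cells seeded overnight to >95% confluence, loaded 40-60 min at room temperature with 2 μM Fluo-8 AM, then kept in HHBS. Baseline read 30 s, compound added, signal followed 150 s more.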

[2] = target: T1, human FXR (NR1H4) (Homo sapiens, UniProt Q96RI1); test: Human FXR (NR1H4) agonist assessment, FXRE-NanoLuc reporter in HEK293T cells; format: cell-based; details: FXR activation, HEK293T FXRE-NanoLuc reporter, 24 hr; for EC50: read-out: EC50
T1 sequence (Q96RI1 1-476 isoform Q96RI1-1): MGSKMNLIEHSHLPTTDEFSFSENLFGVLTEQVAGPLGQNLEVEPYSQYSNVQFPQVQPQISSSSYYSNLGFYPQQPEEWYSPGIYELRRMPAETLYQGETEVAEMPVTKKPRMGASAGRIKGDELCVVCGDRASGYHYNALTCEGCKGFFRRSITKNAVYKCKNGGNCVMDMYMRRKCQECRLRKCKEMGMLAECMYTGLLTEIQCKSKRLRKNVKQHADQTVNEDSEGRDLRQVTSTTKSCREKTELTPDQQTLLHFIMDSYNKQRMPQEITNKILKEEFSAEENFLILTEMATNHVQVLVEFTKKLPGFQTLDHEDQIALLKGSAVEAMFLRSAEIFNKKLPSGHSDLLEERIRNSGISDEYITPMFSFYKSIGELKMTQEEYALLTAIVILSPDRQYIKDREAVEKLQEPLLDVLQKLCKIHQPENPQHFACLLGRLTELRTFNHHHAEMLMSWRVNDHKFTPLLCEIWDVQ
In short: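 HEK293T cells stably expressing human FXR with an FXRE-NanoLuc reporter were treated with compounds for 24 hr at 37 °C, with 0.01% DMSO as negative control. Medium was read for luminescence after 5 min with coelenterazine. EC50 was fitted by sigmoid to concentration-response data.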

Row | SMILES | MRGPRX4 activation, fluorescence change (dF/F0), Average ([1]; Conc. (Log[M]) −4) | MRGPRX4 activation, fluorescence change (dF/F0), Average ([1]; Conc. (Log[M]) −4.5) | MRGPRX4 activation, fluorescence change (dF/F0), Average ([1]; Conc. (Log[M]) −5) | MRGPRX4 activation, fluorescence change (dF/F0), Average ([1]; Conc. (Log[M]) −5.5) | MRGPRX4 activation, fluorescence change (dF/F0), Average ([1]; Conc. (Log[M]) −6) | MRGPRX4 activation, fluorescence change (dF/F0), Average ([1]; Conc. (Log[M]) −7) | MRGPRX4 activation, fluorescence change (dF/F0), Average ([1]; Conc. (Log[M]) −8) | MRGPRX4 activation, fluorescence change (dF/F0), Average ([1]; Conc. (Log[M]) −9) | EC50 [1] [µM] | Efficacy (maximum measured induction of NanoLuc, normalized to CDCA set as 100%) [2] | EC50 [2] [µM] | MRGPRX4 activation, Average ([1]; E3-9, Conc. (Log[M]) −4.0) | MRGPRX4 activation, Average ([1]; E3-9, Conc. (Log[M]) −4.5) | MRGPRX4 activation, Average ([1]; E3-9, Conc. (Log[M]) −5.0) | MRGPRX4 activation, Average ([1]; E3-9, Conc. (Log[M]) −5.4) | MRGPRX4 activation, Average ([1]; E3-9, Conc. (Log[M]) −5.9) | MRGPRX4 activation, Average ([1]; E3-9, Conc. (Log[M]) −6.4) | MRGPRX4 activation, Average ([1]; E3-9, Conc. (Log[M]) −6.9) | MRGPRX4 activation, Average ([1]; E3-9, Conc. (Log[M]) −7.3) | MRGPRX4 activation, Average ([1]; E3-9, Conc. (Log[M]) −7.8) | further results
1 | C[C@H](CCC(C)(C)O)[C@H]1CC[C@H]2[C@@H]3CC[C@@H]4CCCC[C@]4(C)[C@H]3CC[C@]12C [2-3] | 0.074 | 0.027 | −0.036 | −0.031 | −0.031 | −0.008 | −0.023 | −0.017 | > 100 | C (100%<efficacy <=300%) | 1 to 10 | – | – | – | – | – | – | – | – | – | –
2 | CC[C@H]1[C@@H](O)[C@@H]2[C@H](CC[C@]3(C)[C@@H]([C@H](C)CCNC(=O)NS(=O)(=O)C4CCC(C)(C)CC4)CC[C@@H]23)[C@@]2(C)CCCC[C@@H]12 [5-5] | 0.083 | 0.033 | 0.017 | 0.020 | 0.027 | 0.060 | – | – | > 100 | C (100%<efficacy <=300%) | < 1 | – | – | – | – | – | – | – | – | – | –
3 | CC[C@H]1[C@@H](O)[C@@H]2[C@H](CC[C@]3(C)[C@@H]([C@H](C)CCNC(=O)C(=O)NS(=O)(=O)c4ccc(C(C)(C)CF)cc4)CC[C@@H]23)[C@@]2(C)CCCC[C@@H]12 [8-3] | – | – | – | – | – | – | – | – | > 100 | C (100%<efficacy <=300%) | < 1 | 0.023 | 0.016 | 0.016 | 0.023 | 0.025 | 0.013 | 0.013 | 0.013 | 0.011 | MRGPRX4 activation, Average ([1]; E3-9, Conc. (Log[M]) −8.3): 0.018
4 | CC[C@H]1[C@@H](OC(=O)c2cccc(I)c2)[C@@H]2[C@H](CC[C@]3(C)C([C@H](C)CCC(=O)OC)=CC(=O)[C@@H]23)[C@@]2(C)CCCC[C@@H]12 [3-2] | 0.130 | 0.023 | −0.003 | −0.034 | 0.008 | −0.014 | −0.016 | −0.035 | > 100 | C (100%<efficacy <=300%) | > 10 | – | – | – | – | – | – | – | – | – | –
5 | CC[C@H]1[C@@H](O)[C@@H]2[C@H](CC[C@]3(C)[C@@H]([C@H](C)CCNC(=O)NS(=O)(=O)c4ccc(C(C)(C)CF)cc4)CC[C@@H]23)[C@@]2(C)CC[C@H](F)C[C@@H]12 [9-1] | – | – | – | – | – | – | – | – | > 100 | B (300%<efficacy <=400%) | < 1 | 0.019 | 0.021 | 0.012 | 0.018 | 0.014 | 0.019 | 0.016 | 0.016 | 0.012 | MRGPRX4 activation, Average ([1]; E3-9, Conc. (Log[M]) −8.3): 0.018
6 | C[C@H](CC/C=C/C(=O)O)[C@H]1CC[C@H]2[C@@H]3CC[C@@H]4C[C@H](O)CC[C@]4(C)[C@H]3C[C@H](O)[C@]12C [RC-7] | 0.049 | 0.030 | −0.027 | −0.038 | −0.035 | 0.007 | −0.030 | −0.005 | < 50 | C (100%<efficacy <=300%) | 1 to 10 | – | – | – | – | – | – | – | – | – | –
7 | C[C@H](CCCCC(=O)O)[C@H]1CC[C@H]2[C@@H]3CC[C@@H]4C[C@H](O)CC[C@]4(C)[C@H]3CC[C@]12C [compound 84] | 0.287 | 0.065 | 0.021 | −0.001 | 0.009 | −0.014 | 0.002 | −0.014 | < 50 | B (300%<efficacy <=400%) | 1 to 10 | – | – | – | – | – | – | – | – | – | –
8 | CC[C@H]1[C@@H](O)[C@@H]2[C@H](CC[C@]3(C)[C@@H]([C@H](C)CCNC(=O)NS(=O)(=O)c4ccc(C(C)(C)CO)cc4)CC[C@@H]23)[C@@]2(C)CCCC[C@@H]12 [5-2] | 0.087 | 0.030 | 0.023 | 0.027 | 0.023 | 0.020 | – | – | > 100 | A (efficacy >400%) | < 1 | – | – | – | – | – | – | – | – | – | –
9 | CC[C@H]1[C@@H](O)[C@@H]2[C@H](CC[C@]3(C)[C@@H]([C@H](C)CCNC(=O)NS(=O)(=O)N4CC5CC5C4)CC[C@@H]23)[C@@]2(C)CCCC[C@@H]12 (stereo partly drawn) [5-12] | – | – | – | – | – | – | – | – | > 100 | C (100%<efficacy <=300%) | 1 to 10 | – | – | – | – | – | – | – | – | – | MRGPRX4 activation, Average ([1]; E3-6-2, 1st of 6 concentration columns (head not in rows shown)): 0.057; MRGPRX4 activation, Average ([1]; E3-6-2, 3rd of 6 concentration columns (head not in rows shown)): 0.023; MRGPRX4 activation, Average ([1]; E3-6-2, 6th of 6 concentration columns (head not in rows shown)): 0.013; MRGPRX4 activation, Average ([1]; E3-6-2, concentration not given): 0.013
10 | CC[C@H]1[C@@H](O)[C@@H]2[C@H](CC[C@]3(C)[C@@H]([C@H](C)CCNC(=O)NS(=O)(=O)c4ccc(C(C)(C)CF)cc4)CC[C@@H]23)[C@@]2(C)CCC(F)(F)C[C@@H]12 [10-1] | – | – | – | – | – | – | – | – | > 100 | B (300%<efficacy <=400%) | < 1 | 0.025 | 0.016 | 0.021 | 0.018 | 0.019 | 0.016 | 0.018 | 0.016 | 0.008 | MRGPRX4 activation, Average ([1]; E3-9, Conc. (Log[M]) −8.3): 0.010
